Experimental data: ChEMBL document CHEMBL5154923 (J Med Chem, 2022)

Columns and labels:
[1] = target: T1, Serine/threonine-protein kinase 17A (Homo sapiens) (UniProt Q9UEE5); test: Binding affinity to human N-terminal His-tagged/ TEV cleavage fused DRAK1 (39 to 369 residues) expressed in Escherichia coli assessed as change in melting temperature at 10 uM by SYPRO orange dye based DSF assay
T1 sequence (whole entry): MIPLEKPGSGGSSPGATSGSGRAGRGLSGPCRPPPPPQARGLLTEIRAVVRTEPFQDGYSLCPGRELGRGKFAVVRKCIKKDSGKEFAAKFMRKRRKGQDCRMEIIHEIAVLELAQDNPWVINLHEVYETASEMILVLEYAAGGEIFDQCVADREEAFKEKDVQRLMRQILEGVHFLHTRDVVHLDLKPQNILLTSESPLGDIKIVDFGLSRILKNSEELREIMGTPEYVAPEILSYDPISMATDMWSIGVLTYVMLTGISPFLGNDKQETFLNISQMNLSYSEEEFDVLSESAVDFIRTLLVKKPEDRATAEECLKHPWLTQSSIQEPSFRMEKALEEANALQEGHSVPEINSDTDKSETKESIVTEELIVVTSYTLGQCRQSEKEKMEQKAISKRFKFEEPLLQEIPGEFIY

[2] = target: Casein kinase II subunit alpha (Homo sapiens, UniProt P68400); test: Binding affinity to wild type full length human CK2alpha1 (1 to 391 residues) expressed in mammalian expression system assessed as change in melting temperature at 10 uM by SYPRO orange dye based DSF assay
Sequence of Casein kinase II subunit alpha (P68400 whole entry, looked up, the tested form may be a part): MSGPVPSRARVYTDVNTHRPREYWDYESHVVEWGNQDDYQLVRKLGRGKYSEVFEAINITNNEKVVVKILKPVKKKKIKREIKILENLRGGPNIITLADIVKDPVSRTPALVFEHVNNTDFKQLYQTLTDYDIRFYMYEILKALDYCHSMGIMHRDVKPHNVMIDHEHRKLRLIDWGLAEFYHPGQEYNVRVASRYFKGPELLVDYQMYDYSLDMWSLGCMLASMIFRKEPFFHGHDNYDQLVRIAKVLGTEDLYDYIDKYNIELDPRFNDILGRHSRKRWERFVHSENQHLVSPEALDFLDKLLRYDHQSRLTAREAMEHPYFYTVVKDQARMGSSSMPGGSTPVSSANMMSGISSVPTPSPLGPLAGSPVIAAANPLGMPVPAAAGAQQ

[3] = Binding affinity to wild type full length human CK2alpha2 (1 to 350 residues) expressed in mammalian expression system assessed as change in melting temperature by SYPRO orange dye based DSF assay
[4] = target: T2, Serine/threonine-protein kinase 17A (Homo sapiens, UniProt Q9UEE5); test: Inhibition of human N-terminal His-tagged/ TEV cleavage fused DRAK1 (39 to 369 residues) expressed in Escherichia coli using KKLNRTLSFAEPG peptide as substrate in presence of [gamma-33P]ATP by radiometric based scintillation proximity assay
T2 sequence (Q9UEE5 whole entry): T1 sequence (whole entry)

[5] = target: T2, Serine/threonine-protein kinase 17A; test: Inhibition of human N-terminal His-tagged/ TEV cleavage fused DRAK1 (39 to 369 residues) transfected in HEK293T cells using NanoBRET NanoGlo as substrate incubated for 2 hrs by NanoBRET assay; assay type: cell-based

Structure (SMILES)	ΔTm [1] [°C]	ΔTm [2] [°C]	ΔTm [3] [°C]	IC50 [4] [nM]	IC50 [5] [nM]
CC(NC(=O)c1ccc2cc1OCCOCCNc1ccn3ncc-2c3n1)c1ccccc1 (centres undefined)	12.1	-0.9	1.9	31	71
O=C(c1ccc2cc1OCCOCCNc1ccn3ncc-2c3n1)N1CCOCC1	3	1.1	2.5	–	> 45000
